Laboratory results from the supplement of paper PMC11061612.

Legend:
[1] = compound: CCN(CCO)CCCOc1ccc2c(Nc3cc(CC(=O)Nc4cccc(F)c4)[nH]n3)ncnc2c1 [AZD2811]; details: max 1 µM
Summary of the method: (§1)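 Following 24 hours at 37°C and 5% CO2, cancer cell lines in 1536-well plates with 7.5 μl DMEM/F12 or RPMI and 10% FBS were dosed for 72 hours, final DMSO typically being 0.2%. CellTiter-Glo 2.0 luminescence, scaled between blank-well and DMSO-well means, gave the viability readout. Dose responses were fitted to a two-parameter logistic curve with a non-linear mixed effects model, and the single-agent IC50 was derived from this fit.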

[2] = compound: CCc1c2c(nc3ccc(O)cc13)-c1cc3c(c(=O)n1C2)COC(=O)[C@]3(O)CC [SN-38]; details: max 0.3 µM
Summary of the method: as §1

[3] = compound: Cc1c2c(nn1C)CSCc1cc(n(C)n1)CSc1cc(c3ccccc3c1)OCCCc1c(C(=O)O)n(C)c3c-2c(Cl)ccc13 [AZD5991]; details: max 1 µM
Summary of the method: as §1

[4] = compound: COc1cc2ncnc(Nc3ccc(F)c(Cl)c3)c2cc1OCCCN1CCOCC1 [Gefitinib]; details: max 10 µM
Summary of the method: as §1

[5] = compound: CS(=O)(=O)CCNCc1ccc(-c2ccc3ncnc(Nc4ccc(OCc5cccc(F)c5)c(Cl)c4)c3c2)o1 [Lapatinib]; details: max 10 µM
Summary of the method: as §1

[6] = compound: COc1nnc2ccc(N3CCC(c4ccc(OCCN5CCN(C)C(=O)[C@H]5C)cc4)CC3)nn12 [AZD5153]; details: max 1 µM
Summary of the method: as §1

[7] = compound: C1CC(C1)(C(=O)[O-])C(=O)[O-].N.N.[Pt+2] [Carboplatin]; details: max 10 µM
Summary of the method: as §1

[8] = compound: CN(CC[C@H](CSC1=CC=CC=C1)NC2=C(C=C(C=C2)S(=O)(=O)NC(=O)C3=CC=C(C=C3)N4CCC(CC4)[C@H](C5=CC=CC=C5C6=CC=C(C=C6)Cl)O)S(=O)(=O)C(F)(F)F)CCO [AZD4320]; details: max 1 µM
Summary of the method: as §1

[9] = compound: O=C(Nc1ccc2[nH]nc(-c3ccncc3)c2c1)[C@@H]1CCN(CC(=O)N2CCN(c3ccc(-c4ncccn4)cc3)CC2)C1; details: max 5 µM
Summary of the method: as §1

[10] = compound: COc1cc([C@@H]2c3cc4c(cc3[C@@H](O[C@@H]3O[C@@H]5CO[C@@H](C)O[C@H]5[C@H](O)[C@H]3O)[C@H]3COC(=O)[C@H]23)OCO4)cc(OC)c1O [Etoposide]; details: max 10 µM
Summary of the method: as §1

[11] = compound: O=c1[nH]cc(F)c(=O)[nH]1 [5-Fluorouracil]; details: max 20 µM
Summary of the method: as §1

[12] = compound: COc1cccc(OCCCN)c1-c1cc(Nc2cnc(C#N)cn2)n[nH]1 [Prexasertib]; details: max 1 µM
Summary of the method: as §1

[13] = compound: C[C@@H](Oc1cc(-c2cnn(C3CCNCC3)c2)cnc1N)c1c(Cl)ccc(F)c1Cl [Crizotinib]; details: max 10 µM
Summary of the method: as §1

[14] = compound: CC(=O)O[C@H]1C(=O)[C@@]2(C)[C@H]([C@H](OC(=O)c3ccccc3)[C@]3(O)C[C@H](OC(=O)[C@H](O)[C@@H](NC(=O)c4ccccc4)c4ccccc4)C(C)=C1C3(C)C)[C@]1(OC(C)=O)CO[C@@H]1C[C@@H]2O [Paclitaxel]; details: max 3 µM
Summary of the method: as §1

[15] = compound: Nc1ccn([C@@H]2O[C@H](CO)[C@@H](O)C2(F)F)c(=O)n1 [Gemcitabine]; details: max 0.3 µM
Summary of the method: as §1

[16] = compound: C1CN(CCC1(C(=O)N[C@@H](CCO)C2=CC=C(C=C2)Cl)N)C3=NC=NC4=C3C=CN4 [AZD5363]; details: max 10 µM
Summary of the method: as §1

[17] = compound: Cc1cc2ncnn2cc1Nc1ncc2c(n1)n(C1CCOCC1)c(=O)n2C [AZD7648]; details: max 10 µM
Summary of the method: as §1

[18] = compound: COc1cc(Nc2ncc3c(n2)-c2ccc(Cl)cc2C(c2c(F)cccc2OC)=NC3)ccc1C(=O)O [Alisertib]; details: max 10 µM
Summary of the method: as §1

[19] = compound: Cn1cnc2c(F)c(Nc3ccc(Br)cc3Cl)c(C(=O)NOCCO)cc21 [Selumetinib]; details: max 10 µM
Summary of the method: as §1

[20] = compound: CC(C)n1c(=O)n(C)c2cnc3cc(F)c(-c4ccc(OCCCN5CCCCC5)nc4)cc3c21 [AZD1390]; details: max 0.3 µM
Summary of the method: as §1

[21] = compound: C[C@@H](c1ccc2nccn2c1)n1nnc2ncc(-c3cnn(C)c3)nc21 [Savolitinib]; details: max 1 µM
Summary of the method: as §1

[22] = compound: C=CCn1c(=O)c2cnc(Nc3ccc(N4CCN(C)CC4)cc3)nc2n1-c1cccc(C(C)(C)O)n1 [AZD1775]; details: max 3 µM
Summary of the method: as §1

[23] = compound: COc1cccc2c1C(=O)c1c(O)c3c(c(O)c1C2=O)C[C@@](O)(C(=O)CO)C[C@@H]3O[C@H]1C[C@H](N)[C@H](O)[C@H](C)O1 [Doxorubicin]; details: max 1 µM
Summary of the method: as §1

[24] = compound: CN(C)CCCOc1ccc(-c2ccc3ncc4c(c3c2)n(C2CCOCC2)c(=O)n4C)cn1 [AZD0156]; details: max 3 µM
Summary of the method: as §1

[25] = compound: C[C@@H](Nc1cc(F)cc(F)c1)c1cc(C(=O)N(C)C)cc2c(=O)cc(N3CCOCC3)oc12 [AZD8186]; details: max 10 µM
Summary of the method: as §1

[26] = compound: CC(=O)Nc1cccc(-n2c(=O)n(C3CC3)c(=O)c3c(Nc4ccc(I)cc4F)n(C)c(=O)c(C)c32)c1 [Trametinib]; details: max 1 µM
Summary of the method: as §1

[27] = compound: CC1=CN2[C@@H](C1)C=NC3=CC(=C(C=C3C2=O)OC)OCCCCCOC4=C(C=C5C(=C4)N=C[C@@H]6CC(=CN6C5=O)C)OC [SG3199]; details: max 0.001 µM
Summary of the method: as §1

[28] = compound: CC(=O)c1c(C)c2cnc(Nc3ccc(N4CCNCC4)cn3)nc2n(C2CCCC2)c1=O [Palbociclib]; details: max 10 µM
Summary of the method: as §1

[29] = compound: CC1(C)CCC(CN2CCN(c3ccc(C(=O)NS(=O)(=O)c4ccc(NCC5CCOCC5)c([N+](=O)[O-])c4)c(Oc4cnc5[nH]ccc5c4)c3)CC2)=C(c2ccc(Cl)cc2)C1 [Venetoclax]; details: max 1 µM
Summary of the method: as §1

[30] = compound: CC1=C(C(=CC=C1)Cl)NC(=O)C2=CN=C(S2)NC3=CC(=NC(=N3)C)N4CCN(CC4)CCO [Dasatinib]; details: max 2 µM
Summary of the method: as §1

[31] = compound: O=C(c1cc(Cc2n[nH]c(=O)c3ccccc23)ccc1F)N1CCN(C(=O)C2CC2)CC1 [Olaparib]; details: max 10 µM
Summary of the method: as §1

[32] = compound: Cc1nc(-c2cn3c(n2)-c2ccc(-c4cnn(C(C)(C)C(N)=O)c4)cc2OCC3)n(C(C)C)n1 [Taselisib]; details: max 10 µM
Summary of the method: as §1

[33] = compound: N#Cc1cnc(Nc2cc(NC[C@H]3CNCCO3)c(C(F)(F)F)cn2)cn1 [SRA737]; details: max 10 µM
Summary of the method: as §1

[34] = compound: C[C@@H]1COCCN1C2=NC(=NC(=C2)C3(CC3)[S@](=N)(=O)C)C4=C5C=CNC5=NC=C4 [AZD6738]; details: max 10 µM
Summary of the method: as §1

[35] = compound: NC1(c2ccc(-c3nc4ccn5c(=O)[nH]nc5c4cc3-c3ccccc3)cc2)CCC1 [MK-2206]; details: max 10 µM
Summary of the method: as §1

| Cell Line | IC50, cell viability 72 h [1] | IC50, cell viability 72 h [2] | IC50, cell viability 72 h [3] | IC50, cell viability 72 h [4] | IC50, cell viability 72 h [5] | IC50, cell viability 72 h [6] | IC50, cell viability 72 h [7] | IC50, cell viability 72 h [8] | IC50, cell viability 72 h [9] | IC50, cell viability 72 h [10] | IC50, cell viability 72 h [11] | IC50, cell viability 72 h [12] | IC50, cell viability 72 h [13] | IC50, cell viability 72 h [14] | IC50, cell viability 72 h [15] | IC50, cell viability 72 h [16] | IC50, cell viability 72 h [17] | IC50, cell viability 72 h [18] | IC50, cell viability 72 h [19] | IC50, cell viability 72 h [20] | IC50, cell viability 72 h [21] | IC50, cell viability 72 h [22] | IC50, cell viability 72 h [23] | IC50, cell viability 72 h [24] | IC50, cell viability 72 h [25] | IC50, cell viability 72 h [26] | IC50, cell viability 72 h [27] | IC50, cell viability 72 h [28] | IC50, cell viability 72 h [29] | IC50, cell viability 72 h [30] | IC50, cell viability 72 h [31] | IC50, cell viability 72 h [32] | IC50, cell viability 72 h [33] | IC50, cell viability 72 h [34] | IC50, cell viability 72 h [35] |
| --- | --- | --- | --- | --- | --- | --- | --- | --- | --- | --- | --- | --- | --- | --- | --- | --- | --- | --- | --- | --- | --- | --- | --- | --- | --- | --- | --- | --- | --- | --- | --- | --- | --- | --- | --- |
| LS-513 (Colorectal Carcinoma) | > 1 µM | 0.0426 µM | > 1 µM | > 10 µM | 4.21 µM | 0.334 µM | > 10 µM | > 1 µM | 0.304 µM | > 10 µM | 7.25 µM | 0.087 µM | 4.09 µM | 0.07 µM | 0.0282 µM | > 10 µM | > 10 µM | 1.45 µM | 0.419 µM | > 0.3 µM | > 1 µM | 0.789 µM | > 1 µM | > 3 µM | > 10 µM | 0.00366 µM | > 0.001 µM | 4.87 µM | > 1 µM | > 2 µM | > 10 µM | 1.3 µM | 6.76 µM | 2.76 µM | 2.31 µM |
| MDA-MB-157 (Breast Carcinoma) | > 1 µM | 0.0626 µM | 0.457 µM | > 10 µM | > 10 µM | 0.398 µM | > 10 µM | > 1 µM | > 5 µM | 8.86 µM | 10.6 µM | 0.01 µM | > 10 µM | 0.132 µM | 0.213 µM | > 10 µM | > 10 µM | > 10 µM | > 10 µM | > 0.3 µM | > 1 µM | 0.973 µM | > 1 µM | > 3 µM | > 10 µM | > 1 µM | > 0.001 µM | > 10 µM | > 1 µM | > 2 µM | > 10 µM | > 10 µM | 1.23 µM | 0.926 µM | > 10 µM |
| MDA-MB-231 (Breast Carcinoma) | > 1 µM | 0.109 µM | > 1 µM | > 10 µM | > 10 µM | 0.374 µM | > 10 µM | > 1 µM | 1.91 µM | > 10 µM | > 20 µM | 0.173 µM | > 10 µM | 0.456 µM | 0.184 µM | > 10 µM | > 10 µM | > 10 µM | 9.41 µM | > 0.3 µM | > 1 µM | > 3 µM | 0.592 µM | > 3 µM | > 10 µM | 0.204 µM | > 0.001 µM | > 10 µM | > 1 µM | 1.9 µM | > 10 µM | > 10 µM | > 10 µM | 9.53 µM | > 10 µM |
| MFH-ino (Other Solid Carcinomas) | > 1 µM | 0.0398 µM | > 1 µM | > 10 µM | > 10 µM | > 1 µM | > 10 µM | > 1 µM | 3.67 µM | > 10 µM | > 20 µM | > 1 µM | > 10 µM | 1.27 µM | 0.0717 µM | > 10 µM | > 10 µM | > 10 µM | > 10 µM | > 0.3 µM | > 1 µM | > 3 µM | > 1 µM | > 3 µM | > 10 µM | > 1 µM | > 0.001 µM | > 10 µM | > 1 µM | > 2 µM | > 10 µM | > 10 µM | > 10 µM | > 10 µM | > 10 µM |
| NALM-6 (B-Lymphoblastic Leukemia) | 0.057 µM | 0.00589 µM | > 1 µM | > 10 µM | 8.22 µM | 0.0319 µM | > 10 µM | 0.146 µM | > 5 µM | 0.302 µM | > 20 µM | 0.0117 µM | 1.17 µM | 0.00565 µM | 0.00363 µM | 1.37 µM | > 10 µM | 0.238 µM | > 10 µM | > 0.3 µM | > 1 µM | 0.509 µM | 0.106 µM | > 3 µM | 1.22 µM | > 1 µM | > 0.001 µM | 1.41 µM | 0.38 µM | 1.14 µM | > 10 µM | 0.293 µM | 2.31 µM | 1.05 µM | 0.816 µM |
